Test results published in publication PMC12881674, “Activation of TRPV3 channels in bladder cancer cells stimulates ATP release” (Molecular Pharmacology, 2025).

Tested on: KU-19-19 cells
Test: MTT cell viability/proliferation assay
Format: cell-based, human
Settings: 24 hours, concentrations up to 50 μM
Protocol: To monitor a potential cytotoxicity of individual compounds, 3-(4,5-dimethylthiazol-2-yl)-2,5-diphenyltetrazolium bromide (MTT) assays were performed to assess cell viability and metabolic activity. Cells (5000 per/well) were seeded in PLL-coated 96-well plates and allowed to adhere overnight. After 24 hours, culture medium was exchanged for medium containing indicated drugs, and cells were cultured for another 24 hours. Following treatment with the compounds, 100 μL of medium containing 0.5 mg/mL MTT was added, and cells were incubated for additional 3 hours. The medium was removed, and 100 μL of DMSO was added to dissolve formazan crystals. Absorbance was measured at 560 nm, with a reference wavelength at 670 nm using a plate reader (Polarstar Omega; BMG Labtech). Cell viability was calculated relative to untreated control cells.
Fig. 4 TRPV3 activation by AV3-1 was enhanced by cholesterol supplementation and causes ATP release in KU-19-19 bladder cancer cells. […] Current amplitudes were recorded using voltage ramps from −100 mV to +100 mV (500-millisecond duration) and expressed as current density (pA/pF) measured at +100 mV and −100 mV. (C) Quantification of current densities (pA/pF) at −100 mV (inward current) and +100 mV (outward current) at the time points (1, 2) as indicated in (A, B). […]

SMILES: COC(=O)C12CN(Cc3ccccc3)CC1(C(=O)OC)CN(Cc1ccccc1)C2 (stereo not shown) [AV3-1]
- toxicity (cell viability and proliferation, MTT): only minor toxicity
